What all share (assay): Kinetic measurement with micellar L-dioctanoyl-lecithin (Vmax)
Common to all, as to type: biochemical
Holding throughout (conditions): micellar substrate, titration of fatty acid with 10.3 mM NaOH at pH 6.0

For assay [1], the target named is T1, Bovine pancreatic phospholipase A₂ (PLA), native (Bos taurus, UniProt P00593).
T1 construct: pancreatic pro-PLA's can be purified and converted into the corresponding PLA's; from tissue; host or cells: bovine pancreas
Here is the method:
(§1) […]. A value of 8.8 is used for the N-terminal shortened bovine pancreas enzyme fragments missing Trp³. • b. The binding of the PLA's to micellar cis-9-octadecenyl phosphocholine is determined by means of UV absorption difference spectroscopy (De Aranjo et al., Biochem. 18, (1979), 580-586;; and Hille et al., Biochem. 20, (1981), 4068-4073). • c. Monolayer experiments are carried out using the zero order through with two compartments and the surface barostat technique for measuring phospholipid hydrolysis (Verger and De Haas, Chem. Phys. Lipids, 10, (1973), 127-136). Calculation of the induction time (τ) is carried out as described by Verger et al. J. Biol. Chem. 248 (1973), 4023-4034). Surface tension (π) is measured by means of the plate method by Wilhelmy using a thin platinum plate attached to a Beckman R II C Model LM 600 microbalance. • d. Kinetic measurements with micellar diC₈PC are carried out according to De Haas et al, Biochem. Biophys. Acta, 239, (1971) 252-266.
(§2) This means that the inherent catalytic activity of these pPLA's is not affected by the site-specific acylation. Although acylation of Lys¹¹⁶ with acetyl or maleyl results in a lower Vmax, the remaining activity is sufficient to hydrolyse micellar short chain lecithins effectively. TABLE A

Assay [2] addresses T2, Bovine pancreatic phospholipase A₂, AMPA (fully ε-amidinated PLA) (Bos taurus, UniProt P00593).
T2 construct: fully ε-amidinated according to the method by Wallace and Harris, Biochem. J., 217, (1984), 589-594, and converted into AMPA; from tissue; host or cells: bovine pancreas; chemically amidinated as the pro-enzyme, then converted to the active enzyme
As to the method: as §1, §2

The target in assay [3] is T3, Bovine pancreatic phospholipase A₂, [Arg⁶,ε-Pal-Lys¹⁰]-AMPA (Bos taurus, UniProt P00593, N28R).
T3 construct: Conversion of fully ε-amidinated bovine pancreatic AMPrec in [Arg⁶, ε-Pal-Lys¹⁰]-AMPA; from tissue; host or cells: bovine pancreas; semisynthetic: amidinated fragment 11-123 re-elongated with Pal-Lys, Ile, Met and Ala.Leu.Trp.Gln.Phe.Arg.Gly
As to the method: as §1, §2

For assay [4], the target named is T4, Bovine pancreatic phospholipase A₂, [Arg⁶]-AMPA (Bos taurus, UniProt P00593, N28R).
T4 construct: fully ε-amidinated according to the method by Wallace and Harris, Biochem. J., 217, (1984), 589-594, and converted into AMPA; from tissue; host or cells: bovine pancreas
Here is the method:
as §1, §2

For assay [5], the target named is T5, Porcine pancreatic phospholipase A₂ (PLA), native (Sus scrofa, UniProt P00592).
T5 construct: pancreatic pro-PLA's can be purified and converted into the corresponding PLA's; from tissue; host or cells: pig pancreas
As to the method:
as §1, §2

The target in assay [6] is T6, Porcine pancreatic phospholipase A₂, AMPA (fully ε-amidinated PLA) (Sus scrofa, UniProt P00592).
T6 construct: fully ε-amidinated according to the method by Wallace and Harris, Biochem. J., 217, (1984), 589-594, and converted into AMPA; from tissue; host or cells: pig pancreas; chemically amidinated as the pro-enzyme, then converted to the active enzyme
Here is the method: as §1, §2

Assay [7] deals with Porcine pancreatic phospholipase A₂, [ε-Ac-Lys¹¹⁶]AMPA. As to the method:
as §1, §2

Assay [8] deals with Porcine pancreatic phospholipase A₂, [ε-Cap-Lys¹¹⁶]AMPA. Here is the method:
as §1, §2

The test system of assay [9] is Porcine pancreatic phospholipase A₂, [ε-Lau-Lys¹¹⁶]AMPA. Here is the method: as §1, §2
For assay [10], the system named is Porcine pancreatic phospholipase A₂, [ε-Mal-Lys¹¹⁶]AMPA. Here is the method:
as §1, §2

Assay [11] deals with Porcine pancreatic phospholipase A₂, [ε-NH₂-Lys¹¹⁶]AMPA. As to the method: as §1, §2
Assay [12] has as its system Porcine pancreatic phospholipase A₂, [ε-Ol-Lys¹¹⁶]AMPA. As to the method:
as §1, §2

Assay [13] relates to Porcine pancreatic phospholipase A₂, [ε-Pal-Lys¹¹⁶]AMPA. Here is the method:
as §1, §2

Molecules are shown by their SMILES.

T5 sequence (P00592 23-146): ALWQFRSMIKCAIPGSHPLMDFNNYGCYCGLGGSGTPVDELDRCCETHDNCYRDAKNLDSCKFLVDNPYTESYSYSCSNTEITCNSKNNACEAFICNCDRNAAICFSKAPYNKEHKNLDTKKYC
T6 sequence (P00592 23-146): as above
T3 sequence (P00593 23-145 N28R): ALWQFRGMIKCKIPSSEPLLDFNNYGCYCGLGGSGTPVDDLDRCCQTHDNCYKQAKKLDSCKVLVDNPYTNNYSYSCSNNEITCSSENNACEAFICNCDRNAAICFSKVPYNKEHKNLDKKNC
T4 sequence (P00593 23-145 N28R): as above
T2 sequence (P00593 23-145): as the sequence (P00593 23-145 N28R) above, with R6N counted along it
T1 sequence (P00593 23-145): as the sequence (P00593 23-145 N28R) above, with R6N counted along it

Take `CCCCCCCC(=O)OC[C@H](COP(=O)([O-])OCC[N+](C)(C)C)OC(=O)CCCCCCC` [L-dioctanoyl-lecithin, 1,2-dioctanoyl-sn-glycero-3-phosphocholine]: the “Vmax micellar L-dioctanoyl-lecithin” value in [1] was found to be 3000 µequiv. min⁻¹ mg⁻¹; in [2], 2300 µequiv. min⁻¹ mg⁻¹; in [3], 5600 µequiv. min⁻¹ mg⁻¹; in assay [4], 5900 µequiv. min⁻¹ mg⁻¹; in [5] it was 2200 µequiv. min⁻¹ mg⁻¹; in assay [6], 1650 µequiv. min⁻¹ mg⁻¹. The “Vmax micellar L-dioctanoyl-lecithin” value was 755 µequiv. min⁻¹ mg⁻¹ in assay [7]; 2100 µequiv. min⁻¹ mg⁻¹ in assay [8]; 2500 µequiv. min⁻¹ mg⁻¹ in assay [9]; 405 µequiv. min⁻¹ mg⁻¹ in [10]; 2000 µequiv. min⁻¹ mg⁻¹ in assay [11]; 2600 µequiv. min⁻¹ mg⁻¹ in assay [12]. In addition, the “Vmax micellar L-dioctanoyl-lecithin” value in [13] amounted to 2200 µequiv. min⁻¹ mg⁻¹.

Source of the values: patent EP0311163A2, “Use of site-specific modified lipolytic enzymes for the selective hydrolysis of organized lipid structures” (DUPHAR INTERNATIONAL RESEARCH B.V, priority 1987, dated 1989).
